Assay results published in patent US20240279338A1, “Combination Treatment of Cancer” (Ares Trading S.A., priority 2021, published 2024).

Columns and labels:
[1] = tested on: human T cells co-cultured with MDA-MB-231 tumor cells; assay: Rescue of IFNγ secretion from EBV-specific human T cells co-cultured with MDA-MB-231 tumor cells in presence of NECA; format: cell-based; details: Compound A 100 nM; bintrafusp alfa 1 μg/ml; 10 μM NECA; 74 hours of co-culture; T cells:tumor cells 0.5:1; ELISA
Experimental: Then 10 μM NECA was added to the corresponding groups and 1.3×10^4 of T cells in 100 μl volume were transferred per well of 96-well flat bottom plate with 2.6×10^4 cells/well of MDA-MB-231 tumor cells pre-loaded with EBV peptide (30 ng/ml, […], 21st Century) in 100 μl of RPM11640 media, supplemented with 10% FBS. The final ratio for T cells:MDA-MB-231 tumor cells=0.5:1. Cell culture supernatants were collected after 74 hours of co-culture, and IFNγ levels were measured using human IFNγ ELISA Kit (R&D Systems) according to manufacturer instructions. The percentage of IFNγ secretion rescue was calculated using following formula: 100%−(IFNγ in samples treated with NECA and Compound A alone or combination with bintrafusp alfa minus IFNγ in control sample)[…](IFNγ in samples with NECA minus IFNγ in control sample)*100%. Representative graph with the results shown as average of three samples per treatment group±SEM. P-values are calculated using one-way ANOVA Tukey comparison test. […]
Briefly, MDA-MB-231 tumor cells were seeded to the flat bottom 96-well plate at 2.6×10^4 cells/well (in 100 μl of RPMI1640 media, supplemented with 10% FBS) and loaded with EBV peptide (30 ng/ml, […], 21st Century). […] Cell culture supernatants were collected after 74 hours of co-culture, and IFNγ levels were measured using human IFNγ ELISA Kit (R&D Systems) according to manufacturer instructions. […]

E0771 cells = assay: CD73hi E0771 syngeneic tumor model, tumor growth; format: in vivo, mice; details: for tumor growth inhibition, T/C: E0771, female C57BL/6 mice, Day 18 post treatment initiation
Experimental: Female C57BL/6 mice were inoculated with 1.5×10^5 E0771 cells into the right mammary fat pad and were treated with Compound A (300 mg/kg po, BID), bintrafusp alfa (8.2 mg/kg iv, days 0, 3, 6), Compound A+bintrafusp alfa, when average tumor volume reached approximately 75 mm^3. Vehicle (po, BID) and isotype control antibody injections (6.65 mg/kg iv, days 0, 3, 6) were used as controls. (A) Average tumor volumes with SEM, and (B) individual tumor volumes are presented. Tumor volume data were analyzed using two-way ANOVA followed by Tukey's multiple comparison test.
To determine whether combined treatment with the dual A2A/A2B receptor inhibitor “Compound A” ((S)-7-Oxa-2-aza-spiro[4.5]decane-2-carboxylic acid [7-(3,6-dihydro-2H-pyran-4-yl)-4-methoxy-thiazolo[4,5-c]pyridin-2-yl]-amide) and bintrafusp alfa can inhibit tumor growth in either CD73^hi or CD73^low models, tumor growth was monitored in […] syngeneic tumor models. Animals were inoculated with either CD73^hi tumor cells (4T1, E0771, or EMT6) or with CD73^low MC38, H22 or MBT2 tumor cells. For all tumor models, animals were treated with either 1) vehicle and isotype, 2) Compound A and isotype, 3) vehicle and bintrafusp alfa, or 4) Compound A and bintrafusp alfa.
In the third CD73^hi tumor model, female C57BL/6 mice were inoculated with 1.5×10^5 E0771 cells into the right mammary fat pad and were randomized into treatment groups when average tumor volume reached approximately 75 mm^3. […] Thus, to test its combination potential with Compound A in this model we had to reduce the dose for bintrafusp alfa from 24 mg/kg (iv, days 0, 3, and 6) down to 8.2 mg/kg (iv, days 0, 3, 6). Thus, E0771 tumor-bearing mice were treated with Compound A (300 mg/kg po, BID), bintrafusp alfa (8.2 mg/kg iv, days 0, 3, 6), Compound A+bintrafusp alfa starting the day 0 (when they were randomized into treatment groups). Vehicle (po, BID) and isotype control antibody injections (6.65 mg/kg iv, days 0, 3, 6) were used as controls.

4T1 cells = assay: CD73hi adenosine-rich 4T1 syngeneic tumor model, tumor growth; format: in vivo; details: 4T1, female BALB/c mice; Day 13 post treatment initiation; Compound A 300 mg/kg po bid; bintrafusp alfa 24.6 mg/kg iv days 0, 3, 6
Experimental: Female BALB/c mice were inoculated with 5×10^4 4T1 cells into the right mammary fat pad and were treated with Compound A (300 mg/kg po, bid), bintrafusp alfa (24.6 mg/kg iv, days 0, 3, 6), Compound A+bintrafusp alfa, when average tumor volume reached approximately 60 mm^3. Vehicle (po, bid) and isotype control antibody injections (20 mg/kg iv, days 0, 3, 6) were used as controls. (A) Average tumor volumes with SEM, and (B) individual tumor volumes are presented. Tumor volume data were analyzed using two-way ANOVA followed by Tukey's multiple comparison test.
To determine whether combined treatment with the dual A2A/A2B receptor inhibitor “Compound A” ((S)-7-Oxa-2-aza-spiro[4.5]decane-2-carboxylic acid [7-(3,6-dihydro-2H-pyran-4-yl)-4-methoxy-thiazolo[4,5-c]pyridin-2-yl]-amide) and bintrafusp alfa can inhibit tumor growth in either CD73^hi or CD73^low models, tumor growth was monitored in […] syngeneic tumor models. Animals were inoculated with either CD73^hi tumor cells (4T1, E0771, or EMT6) or with CD73^low MC38, H22 or MBT2 tumor cells. For all tumor models, animals were treated with either 1) vehicle and isotype, 2) Compound A and isotype, 3) vehicle and bintrafusp alfa, or 4) Compound A and bintrafusp alfa. […]

[2] = Compound A 300 mg/kg po BID, bintrafusp alfa 8.2 mg/kg iv days 0, 3, 6

COc1ncc(C2=CCOCC2)c2sc(NC(=O)N3CC[C@@]4(CCCOC4)C3)nc12 [Compound A, (S)-7-Oxa-2-aza-spiro[4.5]decane-2-carboxylic acid [7-(3,6-dihydro-2H-pyran-4-yl)-4-methoxy-thiazolo[4,5-c]pyridin-2-yl]-amide]
rescue of IFNγ secretion [1]: approx. 71%
tumor growth inhibition, T/C (E0771 cells; [2]): 72.9%
mice with CR (complete responses) (E0771 cells; E0771, Compound A 300 mg/kg po BID, bintrafusp alfa 8.2 mg/kg iv days 0, 3, 6): 1
tumor growth inhibition, T/C (4T1 cells): 68.5%

bintrafusp alfa: anti-PD-L1:TGFβRII fusion protein, CAS 1918149-01-5; human IgG1 antibody against PD-L1 fused to extracellular domain of human TGF-β receptor II
rescue of IFNγ secretion [1]: ~24%
tumor growth inhibition, T/C (E0771 cells; [2]): 65.7%
sensitivity of the tumor model (E0771 cells; E0771, bintrafusp alfa original dose 24.6 mg/kg iv days 0, 3, and 6): high sensitivity
tumor growth inhibition, T/C (4T1 cells): 86.2%
